The structures appear in SMILES notation. Residues, ends and D or L forms follow the SMILES beside them.

The record followed here is US20150051262A1, “NMDA RECEPTOR MODULATORS AND USES THEREOF” (Northwestern University, priority 2011, published 2015).

Series [1] deals with floating behavior. The series can be described thus: Porsolt test procedure 1. It is filed as in vivo, Sprague-Dawley rats.
Experimental: Animals were placed in a 46 cm tall×20 cm in diameter clear glass tube filled to 30 cm with tap water at room temperature (23° C.±0.5° C.) for 5 min on the test day. All animals were towel dried after each swimming session by the experimenter. Water was changed after every other animal. Animals were videotaped and total duration (sec) of floating behavior (as defined as the minimal movement required in order to maintain the animal's head above the water) was quantified by a blind experimenter.
A short description of series [2]: Metabolic stability in liver microsomes, human. It is filed as in vitro ADME. As to conditions: Human (M) microsomes; for % Remaining at 60 minutes / Stability Class / Half-life: 1 μM. The method, then:
(§1) Metabolic stability was assessed in liver microsomes as well as in hepatocytes with few compounds.
(§2) Procedure for microsomal stability: • Species: Rat and human • Test concentration: 1 μM (n=2) • Protein concentration: 0.125 mg/mL • Time points: 0, 5, 15, 30 and 60 minutes • Controls: Minus NADPH and buffer • Analysis: Parent compound monitoring LC-MS/MS (Peak area ratios)
On the technique in general: Liver microsomes are a subcellular fraction often used to study metabolism.

The subject of a further series is fall latencies. Kind of series: Rat accelerating rota-rod test. It is filed as in vivo, SD rats. As to conditions: 10-100 mg/kg PO, 30 and 60 min post-dosing, FIG. 16. The protocol: Animals were tested immediately before dosing (0 min), 30 min post-dosing, and 60 min post-dosing using a within subjects design.
On the technique in general: Falling from the rotarod earlier than controls is read as motor impairment.

The nature of series [3]: Metabolic stability in liver microsomes, rat. Type of series: in vitro ADME. Particulars: Rat (M) microsomes; for % Remaining at 60 minutes / Stability Class / Half-life: 1 μM. The protocol: as §1, §2
For a further series, the system named is ultrasonic vocalizations. The series can be described thus: Rat ultrasonic vocalizations (USVs) test. It is filed as in vivo, SD rats. Particulars: 1 mg/kg PO, 1 hr before testing. The protocol:
FIGS. 14A and 14B show the results of the rat USVs test. Positive emotional learning was measured during the conditioned stimulus (CS) trials preceding the tickle unconditioned stimulus (UCS) trials (FIG. 14A). Animals received 15 second trials consisting of 6 CS and 6 UCS trials each (3 min total). Running speed for animals to self administer tickling at the end of the 3 min session was also measured. […] N=7-8. *P<0.05.

For series [4], the system named is floating behavior. The series can be described thus: Porsolt test procedure 2. It is filed as in vivo, Sprague Dawley rats. As to conditions: for floating time in the Porsolt test: single dose (0.3 mg/kg IV), 24 hrs post-dosing, FIG. 11C.
Another series can be described thus: in vitro. Particulars: dog, MDCK; for Papp: concentration 5 μM. The protocol: (§3) Procedure. Permeability of test compounds was assessed using MDCK (Madin-Darby Canine Kidney Cells) using the below parameters. • Test concentration: 5 μM (n=3) • Buffer: HBSS pH 7.4 • Time points: 0, 15, 30, 60 and 90 min • Analysis: Parent compound monitoring using LC-MS/MS
The subject of the next series is open field behavior. The series can be described thus: Rat open field test. As to conditions: 1 mg/kg PO, 1 hr before test, FIG. 15. Type of series: in vivo, SD rats.
For another series, the system named is latency to eat. Kind of series: Rat novelty-induced hypophagia (NIH) test. Type of series: in vivo, SD rats. Particulars: 1 mg/kg PO, 1 hr before test, FIG. 13. The protocol: The rat NIH test was conducted as follows. Animals were food deprived overnight before testing, and lab chow was placed into the center chamber of the open field. After NIH testing, the latency to eat in the animals' home cage was determined as a control. […] N=12 per group. *P<0.05.

Series [5] has as its system long-term depression (LTD). The series can be described thus: Long-term depression (LTD) in hippocampal slices. Type of series: cell-based. Particulars: 1 μM, FIG. 7. The method, then: (Note 0.001 μM represents no drug addition; Each point is mean±SEM of 8-10 slices).
Series [6] can be described thus: Bioavailability of CM-4A (plasma concentration after IV/PO dosing). It is filed as in vivo, Sprague Dawley rats. As to conditions: 0.1 to 10 mg/kg PO, rat plasma, FIG. 1. The method, then:
Procedure. […] Data for male and female were combined for 1 mg/kg PO dosing given that no gender difference was seen. Plasma was separated by centrifugation (1,000×G for 10 min at 4° C.) and plasma samples stored at −80° C. until assay. […]. On the day of the assay, samples and spiked plasma standards were thawed at 4° C., extracted in 3 volumes of ice cold acetonitrile, centrifuged at 25,000×G for 10 min at 4° C., and the supernatant was loaded into autosampler vials (4° C.).

Series [7] is described as follows: Metabolic stability in hepatocytes, human. Type of series: in vitro ADME. As to conditions: Human (H) hepatocytes, 10 μM. The method, then: as §1
(§4) Procedure for hepatocyte stability: • Stock preparation: DMSO • Buffer: Krebs Henseleit Buffer • Total Incubation volume: […] • Cell density: 1 million cells/mL • Test concentration: 10 μM with 0.5% DMSO (n=2) • Time points: 0 and 60 min • Analysis: LC-MS/MS

Series [8] concerns floating behavior. Kind of series: Porsolt test procedure 2. Type of series: in vivo, Sprague Dawley rats. Particulars: 1 hr post-dosing. The protocol:
The antidepressant-like effects of test compounds were examined with the rat Porsolt test as described in Page et al. (1999) and Burgdorf et al. (2009). Male Sprague Dawley rats (2-3 month old) were used in this study. Animals were dosed with test compounds (0.3 mg/kg IV) or sterile saline vehicle (1 ml/kg IV tail vein) 1 hr before a single test session. […] Water was changed after every other animal. […] CM-6A, CM-7A, CM-8A, and CM-9A were tested in the Porsolt test. CM-5A was not tested in the Porsolt test.
Animals received a single 15 min Porsolt habituation session on the day before the first 5 min Porsolt test. N=6 per group. *P<0.05 Fisher's PLSD post hoc test vs. vehicle.

The nature of series [9]: Kinetic aqueous solubility (pION method). Type of series: physicochemical. Particulars: pH 7.4, conc. tested 200 μM with 1% DMSO, 16 h incubation.
In series [10] the test system is Schaffer collateral-evoked NMDA EPSCs in CA1 pyramidal neurons. The series can be described thus: Long-term potentiation (LTP) assay procedure 2. Type of series: cell-based, Sprague-Dawley rats. As to conditions: 1 μM, FIG. 8, P<0.05. The method, then: Assays were conducted as described in Zhang et al. (2008). Sprague-Dawley rats (12-18 days old; Taconic Farms) were deeply anesthetized with isoflurane and decapitated. Brains was removed rapidly, submerged in ice-cold artificial cerebrospinal fluid (ACSF, 2-4° C.), which contained (in mM): 124 NaCl, 4 KCl, 2 MgSO4, 2 CaC12, 1.25 NaH2PO4, 26 NaHCO3, 10 glucose; at pH 7.4, gassed continuously with 95% O2/5% CO2). Brains were hemisected, the frontal lobes cut off, and individual hemispheres glued using cyanoacrylate adhesive onto a stage immersed in ice-cold ACSF gassed continuously with 95% O2/5% CO2 during slicing. […] Bath application of test compounds (1 μM) was applied 30 min prior to application of Schaffer collateral stimulus trains to elicit LTP. LTP was induced by stimulation of Schaffer collateral axons with four high frequency theta burst stimulus trains of 10×100 Hz/5 pulse bursts each, applied at an inter-burst interval of 200 ms. Each train was 2 s in duration, and trains were applied 15 s apart.

Series [11] concerns MDCK (Madin-Darby Canine Kidney Cells). The series can be described thus: in vitro. As to conditions: concentration 5 μM. The protocol:
as §3

Series [12] can be described thus: Metabolic stability in hepatocytes, rat. Type of series: in vitro ADME. Particulars: Rat (H) hepatocytes, 10 μM. The method, then: as §1, §4
The mark [13] stands for this setting: single dose 0.3 mg/kg IV, FIG. 11A.
Where [14] appears, read: single dose (0.3 mg/kg IV), FIG. 11B.

A word on the half-life: it is the time in which the quantity being followed falls by half. Higher therefore signals slow decline. What is called Papp is the rate of passage across a membrane or cell layer, normalised by area and donor concentration. A lower Papp goes with slow passage. Turning to `C[C@@H](O)[C@H](N)C(=O)N1CCC[C@H]1C(=O)N1CCC[C@@]1(Cc1ccccc1)C(=O)N[C@H](C(N)=O)[C@@H](C)O` [CM-4A, (R)-N-((2S,3R)-1-amino-3-hydroxy-1-oxobutan-2-yl)-1-((S)-1-((2S,3R)-2-amino-3-hydroxybutanoyl)pyrrolidine-2-carbonyl)-2-benzylpyrrolidine-2-carboxamide], in the series on floating behavior [1] (0.1 to 10 mg/kg PO, FIG. 9), the “floating time in the rat Porsolt test (dose response)” value is “dose- and time-dependent antidepressant effect”. Moreover, the “% Remaining at 60 minutes” value in series [2] was 72%; in series [3], 68%. Besides, the “Stability Class” value in series [2] was “Moderate (% Remaining 70-90%)”; in [3] it was “Unstable (% Remaining <70%)”. Further, the half-life at 1 μM in [2] (liver microsomes) and in [3] (liver microsomes) was above 1 h each time. Also, in the series with fall latencies, the “fall latencies (sedative/ataxia like effect)” value is listed as “does not produce a sedative/ataxia like effect”. For the same molecule, in the series with ultrasonic vocalizations (FIG. 14A), the positive emotional learning result is “increases positive emotional learning”. Moreover, the “aversive 20-kHz USVs” value in the series with ultrasonic vocalizations (FIG. 14B) is “decreases aversive 20-kHz USVs”. The “floating time in the rat Porsolt test” value with floating behavior [4] (positive control, 1 mg/kg PO, 1 hr and 24 hrs post dosing, FIG. 12) is “robust Antidepressant-like effects”. This molecule also had a recovery at 5 μM in “in vitro” (pH 7.4) of 100%. In addition, the Papp in the series “in vitro” (pH 7.4, Papp (10^−6 cm/sec), HBSS pH 7.4) is 0.15 ×10⁻⁶ cm/s; in the series “in vitro” (pH 7.4, Permeability classification), below 3 ×10⁻⁶ cm/s. For the same molecule, the “center compartment crosses and time (anxiolytic-like effect)” value with open field behavior is “produces an anxiolytic-like effect”. In the series on open field behavior, the “locomotor behavior (line crosses)” value is given as “without effecting locomotor behavior”. The “latency to eat in the NIH test” value in the series with latency to eat is reported as “produces an antidepressant/anxiolytic-like effect”. Further, the “magnitude of LTD” value in series [5] is recorded as “significantly reduced the magnitude of LTD”. Further, in [6], the “oral bioavailability (dose linearity)” value is reported as “essentially linear”.

In the case of `NS(=O)(=O)c1cccc2c1c([N+](=O)[O-])cc1[nH]c(=O)c(=O)[nH]c12` [NBQX, 2,3-dihydroxy-6-nitro-7-sulfamoyl-benzo[f]quinoxaline-2,3-dione, reference compound], in the series on floating behavior [1] (NBQX 10 mg/kg IP 10 min before CM-4A 1 mg/kg PO, FIG. 10), the “floating time in the rat Porsolt test, NBQX pretreatment” value is on record as “blocks the antidepressant-like effect of CM-4A”.

`C[C@@H](O)[C@H](N)C(=O)N1CCC[C@H]1C(=O)N1CCC[C@@]1(Cc1ccc(F)cc1)C(=O)N[C@H](C(N)=O)[C@@H](C)O` [CM-6A, (R)-N-((2S,3R)-1-amino-3-hydroxy-1-oxobutan-2-yl)-1-((S)-1-((2S,3R)-2-amino-3-hydroxybutanoyl)pyrrolidine-2-carbonyl)-2-(4-fluorobenzyl) pyrrolidine-2-carboxamide]: the “% Remaining at 60 minutes” value turned out to be 98% in series [7], 88% in series [2], 100% in series [3] and 87% in series [12]. For the same molecule, the “Half-life” value in series [7], in series [2], in series [3] and in series [12] was above 1 h in each case. For the same molecule, the “Stability Class” value in series [7] is on record as “Stable (% Remaining >90%)”; in series [2], “Moderate (% Remaining 70-90%)”; in series [3] it was “Stable (% Remaining >90%)”; in series [12], “Moderate (% Remaining 70-90%)”. The “floating time in the Porsolt test” value in the series on floating behavior [8] (setting [13]), with floating behavior [8] (setting [14]) and with floating behavior [4] was “produced an antidepressant-like effect” throughout. For the same molecule, in series [9], the “Mean Solubility (N = 3) at pH” value is given as above 200. The “long-term potentiation after high frequency stimulation (fEPSP slope)” value in [10] was “increased long-term potentiation”. Besides, the Permeability classification result in [11] is given as “Low (≦3 × 10^−6 cm/sec)”. The Recovery in [11] is 100.

Regarding `C[C@@H](O)[C@H](N)C(=O)N1CCC[C@H]1C(=O)N1CCC[C@@]1(Cc1cccc(F)c1)C(=O)N[C@H](C(N)=O)[C@@H](C)O` [CM-9A, (R)-N-((2S,3R)-1-amino-3-hydroxy-1-oxobutan-2-yl)-1-((S)-1-((2S,3R)-2-amino-3-hydroxybutanoyl)pyrrolidine-2-carbonyl)-2-(3-fluorobenzyl) pyrrolidine-2-carboxamide], the “floating time in the Porsolt test” value with floating behavior [8] (setting [13]) is “produced an antidepressant-like effect”. Besides, the “floating time in the Porsolt test” value with floating behavior [8] (setting [14]) is on record as “produced an antidepressant-like effect”. The “Mean Solubility (N = 3) at pH” value in [9] is 148 ± 42. In series [2], the “% Remaining at 60 minutes” value is given as 69%, the “Half-life” value is above 1 h and the “Stability Class” value was “Unstable (% Remaining <70%)”. For the same molecule, in series [3], the “% Remaining at 60 minutes” value is reported as 100%, the “Half-life” value was above 1 h and the “Stability Class” value is on record as “Stable (% Remaining >90%)”. Also, in the series on floating behavior [4], the “floating time in the Porsolt test” value is “produced an antidepressant-like effect”. Moreover, in series [10], the “long-term potentiation after high frequency stimulation (fEPSP slope)” value is on record as “increased long-term potentiation”. In [11], the Permeability classification entry is “Low (≦3 × 10^−6 cm/sec)” and the Recovery is 100.

On to `C[C@@H](O)[C@H](N)C(=O)N1CCC[C@H]1C(=O)N1CCC[C@H]1C(=O)N[C@H](C(N)=O)[C@@H](C)O` [GLYX-13, reference compound] (H-TPPT-NH2), for which the “magnitude of LTD” value in series [5] is “significantly reduced the magnitude of LTD”.
